Reference: PubChem BioAssay (NCI)
“And” between values parts separate entries of the source, which are not always exact repeats. Equal entries are not always repeated.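 Growth conditions: 96-well plates. Treatment: test compound, 48 hours, 5 concentrations. Analysis: linear interpolation between bracketing concentrations; unreached endpoints set to highest concentration. Here, GI50 denotes the concentration required for 50% inhibition of growth. The concentration for full growth arrest is given as TGI.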

Key:
Assay in all cases: NCI tumour cell line growth inhibition, 48 h
A498 renal = system: A498 renal
TK-10 renal = system: TK-10 renal
SK-OV-3 ovarian = system: SK-OV-3 ovarian
HT29 colon = system: HT29 colon
A549 NSCLC = system: A549 NSCLC
OVCAR-4 ovarian = system: OVCAR-4 ovarian
M14 melanoma = system: M14 melanoma
UACC-257 melanoma = system: UACC-257 melanoma
HCT-15 colon = system: HCT-15 colon
NCI-H23 lung = system: NCI-H23 lung

Structure (SMILES) | TGI (A498 renal) [µM] | TGI (TK-10 renal) [µM] | TGI (SK-OV-3 ovarian) [µM] | TGI (HT29 colon) [µM] | TGI (A549 NSCLC) [µM] | TGI (OVCAR-4 ovarian) [µM] | TGI (M14 melanoma) [µM] | TGI (UACC-257 melanoma) [µM] | TGI (HCT-15 colon) [µM] | TGI (NCI-H23 lung) [µM] | GI50 (A498 renal) | GI50 (NCI-H23 lung)
CC(C)[Si](OC1=C(C(=O)N(C)c2cccc(Cl)c2)CCCC1)(C(C)C)C(C)C | 31.5 | 30.4 | 30.6 | 31.1 | 19.9 | 26 | 29.3 | 27.8 | 28.4 | 25.3 | – | –
CC1OC(OC2C(O[C@H]3CC[C@@]4(C)C(=CC[C@H]5[C@@H]6C[C@@H]7O[C@]8(CC[C@@H](CO)CO8)[C@@H](C)[C@@H]7[C@@]6(C)CC[C@@H]54)C3)OC(CO)C(O)C2OC2OC(CO)C(O)C(O)C2O)C(O)C(O)C1O (some centres undefined) | 3.82 | 3.08 | 4.19 | 4.91 | 4.48 | 3.69 | 4.14 | 3.24 | 3.94 | 4.07 | – | –
O=C(NNC(=S)Nc1cccc(Cl)c1)c1cc(-c2ccccc2)nc2ccccc12 | – | 30.8 | 34.5 | 45.3 | 32.3 | 28.7 | 33.7 | 31.5 | 29.6 | 34.4 | – | –
CCOC(=O)C(=Cc1[nH]c2ccccc2c1-c1c[nH]c2ccccc12)C(=O)OCC | 28.6 | 26.1 | 49 | 17.5 | 35.9 | 20.3 | 21.7 | 23.8 | 43.9 | 35.4 | – | –
C[C@]12CCC(=O)O[C@H]1CCCCO2 | > 100 | > 100 | > 100 | > 100 | > 100 | – | > 100 | > 100 | > 100 | – | – | –
CCN(CC)C(=S)N/N=C(/C)c1cccc(/C(C)=N\NC(=S)N(CC)CC)n1 | 4.16 | 11.7 | 5.43 | 13.2 | 11.3 | 7.32 | 3.63 | 11 | 17.1 | 19.2 | – | –
Cc1cccc(N=NC(=O)NNc2cccc(C)c2C)c1C | 92.6 | > 100 | – | > 100 | > 100 | > 100 | > 100 | > 100 | > 100 | > 100 | – | –
O=c1cc(-c2ccc(F)cc2)[nH]c2ncc(Cl)cc12 | 53.6 | > 100 | > 100 | > 100 | > 100 | > 100 | > 100 | > 100 | > 100 | > 100 | – | –
O=C1/C(=C/c2ccc([N+](=O)[O-])cc2)C(=O)N(c2ccccc2)C1c1ccccc1 (centres undefined) | > 10 | > 10 | > 10 | > 10 | > 10 | > 10 | > 10 | > 10 | > 10 | > 10 | – | –
O=C(NI1OC(=O)c2ccccc21)c1ccc(Cl)cc1 | > 100 | > 100 | > 100 | > 100 | > 100 | > 100 | > 100 | > 100 | > 100 | > 100 | – | –
O=Cc1c(C(=O)O)[nH]c(=O)[nH]c1=O | > 100 | > 100 | > 100 | > 100 | > 100 | – | > 100 | > 100 | > 100 | > 100 | – | –
COc1cc(/C=C(\C#N)C(N)=O)cc(Br)c1O | > 100 | – | > 100 | > 100 | > 100 | > 100 | – | > 100 | > 100 | > 100 | > 100 µM and 60.3 µM | 43 µM and > 100 µM
CC1=NNC(N)=N/C1=C\C(Sc1ccc(Cl)cc1)c1ccc([N+](=O)[O-])cc1 (centres undefined) | > 100 | > 100 | > 100 | > 100 | > 100 | > 100 | > 100 | > 100 | > 100 | > 100 | – | –
CCN(CC)CCNc1nc2ccc([N+](=O)[O-])cc2[n+]([O-])n1 | 49.7 | > 100 | – | 52.1 | 61 | 26.5 | 41.2 | 31.2 | 39.8 | 47.4 | – | –
COc1cc(/C=C2\C(=O)N(c3ccccc3)C(c3ccccc3)S2(=O)=O)cc(OC)c1OC (centres undefined) | > 100 | > 100 | > 100 | 94.1 | > 100 | > 100 | > 100 | > 100 | > 100 | > 100 | – | –
Cc1ccc(/C=C2\CCCc3ccccc3C2=O)cc1 | – | > 100 | 58 | 18.5 | > 100 | > 100 | 20.4 | > 100 | 27.2 | 89.1 | – | –
CC(=O)OC(/C=C/c1ccccc1)=C(OC(C)C)/C1=C(\c2ccccc2)SCCCSC1=O | > 100 | > 100 | > 100 | > 100 | > 100 | > 100 | > 100 | > 100 | > 100 | > 100 | – | –
Cn1c2c(c3ccccc31)CC1c3c(c4ccccc4n3C)CC21 (centres undefined) | – | > 100 | > 100 | > 100 | > 100 | > 100 | > 100 | > 100 | > 100 | > 100 | – | –
O=C(N/N=C/c1ccccc1)c1c(-c2cccnc2)cnc2ccccc12 | – | > 100 | > 100 | > 100 | > 100 | > 100 | > 100 | > 100 | > 100 | > 100 | – | –
COC1C=CC(O)C(CO)O1 (centres undefined) | – | > 100 | > 100 | > 100 | > 100 | > 100 | > 100 | > 100 | > 100 | > 100 | – | –
O=C(N/N=C\c1cccc2c([N+](=O)[O-])cccc12)Nc1ccccc1 | 33.4 | 27.3 | – | 34.7 | 28.3 | 29.2 | 29.5 | 44.4 | 25.5 | 35.2 | – | –
